Experimental data: patent US11208412B2 (DAEGU-GYEONGBUK MEDICAL INNOVATION FOUNDATION, priority 2017, dated 2021)

How the values were obtained:
Test in all cases: Kinase selectivity, DiscoverX scanMAX Kinase assay panel (% control)
Assay type in all cases: binding
[1] = molecular target: T1, kinases of the scanMAX Kinase assay panel (Homo sapiens, UniProt P36888, R834Q); details: FLT3(R834Q); 1 uM
T1 construct: purchased DiscoverX Co. (contract measurement) scanMAX Kinase assay panel
T1 sequence (P36888 27-993 R834Q): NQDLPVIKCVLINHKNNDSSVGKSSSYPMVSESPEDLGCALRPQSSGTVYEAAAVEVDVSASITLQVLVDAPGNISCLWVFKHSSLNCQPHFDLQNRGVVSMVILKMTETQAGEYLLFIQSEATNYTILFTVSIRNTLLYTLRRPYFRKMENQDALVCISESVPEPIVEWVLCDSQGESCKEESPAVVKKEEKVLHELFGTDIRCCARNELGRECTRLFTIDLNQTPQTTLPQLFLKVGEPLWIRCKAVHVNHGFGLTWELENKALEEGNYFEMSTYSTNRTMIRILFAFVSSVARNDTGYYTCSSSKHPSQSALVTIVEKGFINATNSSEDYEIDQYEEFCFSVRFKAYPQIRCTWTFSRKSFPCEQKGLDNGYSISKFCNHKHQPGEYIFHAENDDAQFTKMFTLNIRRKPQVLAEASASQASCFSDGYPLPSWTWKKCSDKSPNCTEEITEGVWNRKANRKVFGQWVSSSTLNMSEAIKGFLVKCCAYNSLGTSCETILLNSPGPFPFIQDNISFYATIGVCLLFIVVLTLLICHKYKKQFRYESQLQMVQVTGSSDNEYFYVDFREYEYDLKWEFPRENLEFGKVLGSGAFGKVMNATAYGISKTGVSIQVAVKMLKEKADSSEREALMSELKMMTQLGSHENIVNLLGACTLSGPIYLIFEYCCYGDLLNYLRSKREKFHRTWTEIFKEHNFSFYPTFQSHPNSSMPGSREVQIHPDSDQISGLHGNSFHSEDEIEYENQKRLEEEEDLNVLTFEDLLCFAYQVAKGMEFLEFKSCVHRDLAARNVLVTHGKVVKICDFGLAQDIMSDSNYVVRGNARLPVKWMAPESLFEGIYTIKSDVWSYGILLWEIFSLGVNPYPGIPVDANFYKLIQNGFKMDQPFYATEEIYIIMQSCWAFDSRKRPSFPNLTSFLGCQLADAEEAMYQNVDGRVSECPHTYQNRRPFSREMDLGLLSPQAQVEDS
How it was run: (§1)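 Compounds were tested at 1 uM (in DMSO) against each panel kinase. % control was calculated as (compound − positive control)/(negative control − positive control)×100, where the positive control gives 0% and DMSO gives 100%. Activity toward a kinase was called at % control <35%.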

[2] = molecular target: T2, kinases of the scanMAX Kinase assay panel (Homo sapiens, UniProt P33981); details: kinase TTK; 1 uM in DMSO
T2 construct: purchased DiscoverX Co. (contract measurement) scanMAX Kinase assay panel
T2 sequence (P33981 1-857): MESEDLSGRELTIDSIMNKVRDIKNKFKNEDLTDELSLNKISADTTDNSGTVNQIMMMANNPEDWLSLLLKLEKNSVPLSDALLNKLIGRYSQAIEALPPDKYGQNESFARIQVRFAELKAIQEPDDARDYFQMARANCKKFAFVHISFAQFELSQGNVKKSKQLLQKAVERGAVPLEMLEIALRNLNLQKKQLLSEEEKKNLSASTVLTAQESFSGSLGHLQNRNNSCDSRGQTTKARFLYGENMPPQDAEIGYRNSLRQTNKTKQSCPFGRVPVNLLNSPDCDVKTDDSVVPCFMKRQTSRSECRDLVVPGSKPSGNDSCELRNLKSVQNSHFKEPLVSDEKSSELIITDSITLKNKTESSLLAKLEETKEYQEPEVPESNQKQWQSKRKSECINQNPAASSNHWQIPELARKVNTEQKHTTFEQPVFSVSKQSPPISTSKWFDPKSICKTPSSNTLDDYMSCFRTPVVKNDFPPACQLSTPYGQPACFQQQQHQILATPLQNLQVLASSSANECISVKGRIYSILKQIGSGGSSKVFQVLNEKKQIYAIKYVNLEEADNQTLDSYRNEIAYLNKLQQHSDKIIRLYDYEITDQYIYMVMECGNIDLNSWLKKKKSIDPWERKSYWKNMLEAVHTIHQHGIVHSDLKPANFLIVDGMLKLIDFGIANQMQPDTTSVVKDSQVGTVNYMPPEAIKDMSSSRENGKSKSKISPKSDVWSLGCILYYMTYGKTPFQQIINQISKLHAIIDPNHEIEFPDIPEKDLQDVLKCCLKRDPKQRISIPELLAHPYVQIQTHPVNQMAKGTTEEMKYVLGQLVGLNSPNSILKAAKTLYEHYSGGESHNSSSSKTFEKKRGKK
How it was run: as §1

[3] = molecular target: T3, kinases of the scanMAX Kinase assay panel (Homo sapiens, UniProt P07333); details: 1 uM
T3 construct: purchased DiscoverX Co. (contract measurement) scanMAX Kinase assay panel
T3 sequence (P07333 20-972): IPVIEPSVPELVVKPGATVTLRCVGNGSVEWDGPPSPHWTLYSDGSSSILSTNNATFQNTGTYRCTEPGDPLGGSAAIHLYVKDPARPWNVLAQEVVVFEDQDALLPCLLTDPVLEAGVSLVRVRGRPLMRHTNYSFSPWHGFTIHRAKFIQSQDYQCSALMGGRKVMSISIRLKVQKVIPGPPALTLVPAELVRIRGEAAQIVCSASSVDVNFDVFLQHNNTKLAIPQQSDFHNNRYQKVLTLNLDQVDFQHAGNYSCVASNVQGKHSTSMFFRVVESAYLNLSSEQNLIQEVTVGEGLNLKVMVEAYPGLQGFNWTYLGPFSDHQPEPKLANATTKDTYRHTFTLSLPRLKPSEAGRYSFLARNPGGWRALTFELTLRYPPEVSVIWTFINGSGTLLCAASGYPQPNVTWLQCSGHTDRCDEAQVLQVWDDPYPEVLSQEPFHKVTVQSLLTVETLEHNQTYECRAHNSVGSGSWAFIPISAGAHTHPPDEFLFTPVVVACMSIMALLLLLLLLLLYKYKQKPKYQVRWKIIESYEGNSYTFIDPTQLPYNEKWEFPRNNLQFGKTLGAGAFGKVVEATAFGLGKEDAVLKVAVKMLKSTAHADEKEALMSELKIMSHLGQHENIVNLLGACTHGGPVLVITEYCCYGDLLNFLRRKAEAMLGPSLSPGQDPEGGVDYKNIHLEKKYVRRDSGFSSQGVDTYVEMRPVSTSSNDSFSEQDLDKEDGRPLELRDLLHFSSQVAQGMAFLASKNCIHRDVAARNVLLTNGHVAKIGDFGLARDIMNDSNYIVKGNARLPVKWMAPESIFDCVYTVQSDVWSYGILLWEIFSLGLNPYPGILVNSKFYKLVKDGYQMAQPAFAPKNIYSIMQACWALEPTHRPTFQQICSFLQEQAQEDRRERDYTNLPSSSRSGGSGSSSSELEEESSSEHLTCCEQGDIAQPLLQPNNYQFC
How it was run: as §1

[4] = molecular target: T4, kinases of the scanMAX Kinase assay panel (Homo sapiens, UniProt P10721, V559D/V654A); details: KIT(V559D, V654A); 1 uM
T4 construct: purchased DiscoverX Co. (contract measurement) scanMAX Kinase assay panel
T4 sequence (P10721 26-976 V559D/V654A): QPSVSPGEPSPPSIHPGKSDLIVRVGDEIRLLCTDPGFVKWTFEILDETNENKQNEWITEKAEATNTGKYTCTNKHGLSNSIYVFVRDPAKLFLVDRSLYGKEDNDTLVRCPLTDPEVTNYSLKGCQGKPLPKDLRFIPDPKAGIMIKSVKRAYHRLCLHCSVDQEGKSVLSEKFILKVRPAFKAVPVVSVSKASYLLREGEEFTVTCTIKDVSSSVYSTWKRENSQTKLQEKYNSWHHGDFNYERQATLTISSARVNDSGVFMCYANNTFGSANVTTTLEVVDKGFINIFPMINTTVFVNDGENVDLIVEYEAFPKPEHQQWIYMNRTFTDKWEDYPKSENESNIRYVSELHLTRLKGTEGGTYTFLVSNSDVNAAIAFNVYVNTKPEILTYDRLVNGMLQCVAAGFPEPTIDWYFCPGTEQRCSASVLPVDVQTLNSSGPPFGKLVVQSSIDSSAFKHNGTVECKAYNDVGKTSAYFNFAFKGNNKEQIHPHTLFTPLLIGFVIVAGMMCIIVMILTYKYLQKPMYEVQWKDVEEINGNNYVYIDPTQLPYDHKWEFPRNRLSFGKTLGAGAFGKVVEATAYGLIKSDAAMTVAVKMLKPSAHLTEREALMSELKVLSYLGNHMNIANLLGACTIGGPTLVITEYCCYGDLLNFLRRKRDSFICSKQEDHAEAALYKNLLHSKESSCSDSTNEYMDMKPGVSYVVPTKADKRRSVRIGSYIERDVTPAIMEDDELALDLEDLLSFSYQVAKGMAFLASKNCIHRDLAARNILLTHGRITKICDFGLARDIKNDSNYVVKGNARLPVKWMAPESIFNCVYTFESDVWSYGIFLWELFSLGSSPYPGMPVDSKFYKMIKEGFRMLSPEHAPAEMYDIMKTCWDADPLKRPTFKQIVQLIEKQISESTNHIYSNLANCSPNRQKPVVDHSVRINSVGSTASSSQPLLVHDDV
How it was run: as §1

[5] = molecular target: T5, kinases of the scanMAX Kinase assay panel (Homo sapiens, UniProt P06213); details: INSR; 1 uM
T5 construct: purchased DiscoverX Co. (contract measurement) scanMAX Kinase assay panel
How it was run: as §1

[6] = molecular target: T6, kinases of the scanMAX Kinase assay panel (Homo sapiens, UniProt P19784); details: CSNK2A2; 1 uM
T6 construct: purchased DiscoverX Co. (contract measurement) scanMAX Kinase assay panel
T6 sequence (P19784 whole entry): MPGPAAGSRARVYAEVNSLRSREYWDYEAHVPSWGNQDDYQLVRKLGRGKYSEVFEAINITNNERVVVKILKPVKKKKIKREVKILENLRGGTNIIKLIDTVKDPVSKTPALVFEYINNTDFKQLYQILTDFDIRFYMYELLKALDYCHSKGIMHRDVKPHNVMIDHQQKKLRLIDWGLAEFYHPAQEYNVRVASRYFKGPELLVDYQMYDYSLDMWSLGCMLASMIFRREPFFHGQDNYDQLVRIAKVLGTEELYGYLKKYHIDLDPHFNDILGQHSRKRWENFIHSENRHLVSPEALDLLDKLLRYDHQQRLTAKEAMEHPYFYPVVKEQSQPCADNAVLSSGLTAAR
How it was run: as §1

[7] = molecular target: T7, kinases of the scanMAX Kinase assay panel (Homo sapiens, UniProt Q86UX6); details: kinase YANK3; 1 uM in DMSO
T7 construct: purchased DiscoverX Co. (contract measurement) scanMAX Kinase assay panel
T7 sequence (Q86UX6 whole entry): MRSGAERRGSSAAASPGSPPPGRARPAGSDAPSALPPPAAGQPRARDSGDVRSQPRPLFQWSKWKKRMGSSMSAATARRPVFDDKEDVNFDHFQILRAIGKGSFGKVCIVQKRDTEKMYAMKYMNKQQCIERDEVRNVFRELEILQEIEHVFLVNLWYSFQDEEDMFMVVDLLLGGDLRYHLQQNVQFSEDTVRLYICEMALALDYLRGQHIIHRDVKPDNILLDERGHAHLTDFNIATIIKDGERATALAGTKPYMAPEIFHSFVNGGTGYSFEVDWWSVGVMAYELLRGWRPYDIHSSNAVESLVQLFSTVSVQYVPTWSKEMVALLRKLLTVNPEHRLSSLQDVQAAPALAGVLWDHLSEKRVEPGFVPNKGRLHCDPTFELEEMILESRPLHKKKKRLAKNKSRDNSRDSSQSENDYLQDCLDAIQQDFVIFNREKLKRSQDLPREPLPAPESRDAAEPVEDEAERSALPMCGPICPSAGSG
How it was run: as §1

[8] = molecular target: T8, kinases of the scanMAX Kinase assay panel (Homo sapiens, UniProt Q16539); details: p38-alpha; 1 uM
T8 construct: purchased DiscoverX Co. (contract measurement) scanMAX Kinase assay panel
T8 sequence (Q16539 whole entry): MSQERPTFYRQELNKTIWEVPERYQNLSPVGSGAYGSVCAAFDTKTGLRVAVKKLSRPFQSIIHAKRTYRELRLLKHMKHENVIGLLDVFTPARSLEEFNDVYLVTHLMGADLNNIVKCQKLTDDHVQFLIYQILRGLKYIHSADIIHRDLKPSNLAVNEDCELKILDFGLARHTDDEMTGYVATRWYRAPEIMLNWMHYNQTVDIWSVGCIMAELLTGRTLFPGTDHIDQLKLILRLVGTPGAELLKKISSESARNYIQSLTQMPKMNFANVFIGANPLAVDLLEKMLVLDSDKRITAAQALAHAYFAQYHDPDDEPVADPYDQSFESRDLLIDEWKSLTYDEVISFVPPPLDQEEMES
How it was run: as §1

[9] = molecular target: T9, kinases of the scanMAX Kinase assay panel (Homo sapiens, UniProt Q15375); details: EPHA7; 1 uM
T9 construct: purchased DiscoverX Co. (contract measurement) scanMAX Kinase assay panel
T9 sequence (Q15375 28-998): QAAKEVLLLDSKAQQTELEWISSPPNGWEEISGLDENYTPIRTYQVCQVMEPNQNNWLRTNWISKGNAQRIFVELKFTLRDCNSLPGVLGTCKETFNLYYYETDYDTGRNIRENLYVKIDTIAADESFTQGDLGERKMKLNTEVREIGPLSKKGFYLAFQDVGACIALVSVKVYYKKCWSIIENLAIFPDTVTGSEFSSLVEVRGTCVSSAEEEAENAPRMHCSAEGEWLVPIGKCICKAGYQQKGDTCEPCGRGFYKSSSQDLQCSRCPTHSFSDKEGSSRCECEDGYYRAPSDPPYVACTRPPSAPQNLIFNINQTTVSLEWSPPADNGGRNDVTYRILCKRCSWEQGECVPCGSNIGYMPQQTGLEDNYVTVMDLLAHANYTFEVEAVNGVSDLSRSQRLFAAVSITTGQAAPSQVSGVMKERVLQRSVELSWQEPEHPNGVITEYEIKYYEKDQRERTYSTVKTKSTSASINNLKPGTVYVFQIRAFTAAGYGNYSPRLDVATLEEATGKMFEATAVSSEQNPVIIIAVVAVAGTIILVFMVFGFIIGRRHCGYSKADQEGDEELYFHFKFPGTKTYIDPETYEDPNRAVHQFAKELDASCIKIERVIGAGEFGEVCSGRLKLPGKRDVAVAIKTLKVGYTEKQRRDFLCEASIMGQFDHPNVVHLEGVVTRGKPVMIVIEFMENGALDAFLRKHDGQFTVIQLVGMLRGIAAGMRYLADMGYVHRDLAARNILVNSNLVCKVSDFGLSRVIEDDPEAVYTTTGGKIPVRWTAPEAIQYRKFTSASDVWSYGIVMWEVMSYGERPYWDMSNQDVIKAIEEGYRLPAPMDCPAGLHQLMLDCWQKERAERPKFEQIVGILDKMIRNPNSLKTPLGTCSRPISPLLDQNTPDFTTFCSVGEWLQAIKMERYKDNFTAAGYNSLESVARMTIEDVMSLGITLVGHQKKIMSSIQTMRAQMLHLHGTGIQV
How it was run: as §1

[10] = molecular target: T10, kinases of the scanMAX Kinase assay panel (Homo sapiens, UniProt Q9BQI3); details: EIF2AK1; 1 uM
T10 construct: purchased DiscoverX Co. (contract measurement) scanMAX Kinase assay panel
T10 sequence (Q9BQI3 whole entry): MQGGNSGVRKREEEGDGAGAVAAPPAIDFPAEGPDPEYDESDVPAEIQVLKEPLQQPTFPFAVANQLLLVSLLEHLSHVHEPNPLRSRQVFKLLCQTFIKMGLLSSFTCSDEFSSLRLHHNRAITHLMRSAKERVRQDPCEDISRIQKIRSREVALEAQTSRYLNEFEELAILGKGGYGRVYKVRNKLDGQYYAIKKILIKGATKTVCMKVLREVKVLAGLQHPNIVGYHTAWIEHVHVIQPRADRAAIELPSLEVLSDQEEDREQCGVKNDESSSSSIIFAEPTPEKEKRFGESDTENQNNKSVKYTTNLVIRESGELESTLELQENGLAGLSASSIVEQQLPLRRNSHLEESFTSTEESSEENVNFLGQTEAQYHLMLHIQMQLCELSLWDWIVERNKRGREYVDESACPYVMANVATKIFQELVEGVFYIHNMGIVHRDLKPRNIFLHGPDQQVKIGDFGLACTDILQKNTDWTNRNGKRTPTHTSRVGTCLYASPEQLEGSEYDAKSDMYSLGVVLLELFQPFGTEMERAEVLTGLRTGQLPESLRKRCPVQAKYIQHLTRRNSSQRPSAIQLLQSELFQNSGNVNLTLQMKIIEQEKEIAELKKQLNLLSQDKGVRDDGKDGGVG
How it was run: as §1

Row | Compound | remaining binding at 1 µM [1] | remaining binding at 1 µM [2] | remaining binding at 1 µM ([3]; CSF1R-autoinhibited) | remaining binding at 1 µM ([3]; CSF1R) | remaining binding at 1 µM [4] | remaining binding at 1 µM [5] | remaining binding at 1 µM [6] | remaining binding at 1 µM [7] | remaining binding at 1 µM [8] | remaining binding at 1 µM [9] | remaining binding at 1 µM [10]
1 | CCNc1nc(Nc2ccc(C(=O)N3CCC(N4CCOCC4)CC3)cc2OC)nc2[nH]cc(C(F)(F)F)c12 [Example 104, (4-((4-(ethylamino)-5-(trifluoromethyl)-7H-pyrrolo[2,3-d]pyrimidine-2-yl)amino)-3-methoxyphenyl)(4-morpholinopiperidine-1-yl)methanone] | 100% | 1.4% | 100% | 88% | 94% | 7.1% | 95% | 65% | 96% | 94% | 90%
2 | CNc1nc(Nc2ccc(C(=O)N3CCOCC3)cc2OC)nc2[nH]cc(C#N)c12 [Example 1, 2-((2-methoxy-4-(morpholine-4-carbonyl)phenyl)amino)-4-(methylamino)-7H-pyrrolo[2,3-d]pyrimidine-5-carbonitrile] | 65% | 12% | 46% | 89% | 76% | 48% | 76% | 100% | 94% | 97% | 64%
3 | CC1(Nc2nc(Nc3cnn([C@H]4CCN(C5COC5)C[C@@H]4F)c3Cl)nc3[nH]cc(C#N)c23)CC1 [Example 52, 2-((5-chloro-1-((3S,4S)-3-fluoro-1-(oxetane-3-yl)piperidine-4-yl)-1H-pyrazole-4-yl)amino)((1-methylcyclopropyl)amino)-7H-pyrrolo[2,3-d]pyrimidine-5-carbonitrile] | 7.8% | 0.25% | 0% | 0% | 0.9% | 0.35% | 11% | 100% | 91% | 20% | 86%
